Experimental data reported in publication PMC8113459, “Selective inhibition of cullin 3 neddylation through covalent targeting DCN1 protects mice from acetaminophen-induced liver toxicity” (Nature Communications, 2021).

Key:
DCN1 [1] = biological target: T1, DCN1 (Homo sapiens, UniProt Q96GG9); experiment: Intact-protein mass spectrometric analysis of covalent complex formation, Method A; format: binding; details: for Percentage of the formation of covalent complex with DCN1 protein: 37 °C
Description: MassHunter Qualitative Analysis software (Agilent) was used to analyze the data. Intact protein masses were obtained using the maximum entropy deconvolution algorithm. The mass spectrometry data in Supplementary Figs. 1–11 were generated by Method A.
Target sequence in this assay (Q96GG9 58-259 limits assumed): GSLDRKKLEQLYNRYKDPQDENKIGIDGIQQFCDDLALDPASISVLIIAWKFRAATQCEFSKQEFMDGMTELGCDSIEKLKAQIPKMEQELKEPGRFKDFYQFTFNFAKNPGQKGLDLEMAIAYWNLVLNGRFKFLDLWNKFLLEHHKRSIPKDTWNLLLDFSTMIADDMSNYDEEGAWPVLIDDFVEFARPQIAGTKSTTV

Solubility = format: physicochemical
DCN1 [2] = biological target: T1, DCN1; experiment: Cocrystal structures of lyso-DCN1-inhibitor complexes; design: to DCN1 residues 62–251; His6 (N); TEV cleavage site (N); lysozyme residues 1–164 with C54T, C97A, A146T, D127A, R154A (fusion partner, N-terminal of DCN1); made in house; host or cells: Rosetta 2 cells (E. coli)
Description: Lysozyme–DCN1 gene was synthesized fusing lysozyme residues 1–164, containing mutations (C54T, C97A, A146T, D127A, and R154A), to DCN1 residues 62–251. Ligation independent cloning was utilized to clone the fused gene into an N-terminal His6–TEV expression vector. The clone was transformed into Rosetta 2 cells, grown in terrific broth at 37 °C, and expressed overnight with 0.4 mM isopropyl β-D-1-thiogalactopyranoside at 20 °C. Pelleted cells were freeze-thawed and lysed in 25 mM HEPES, pH 7.5, 150 mM NaCl, 0.1% β-mercaptoethanol and protease inhibitors. Cellular debris was removed via centrifugation. The supernatant was loaded onto a Ni-NTA (Qiagen) column at 4 °C. The column was washed with 25 mM HEPES, pH 7.5, 150 mM NaCl, and 20 mM imidazole, then protein eluted with buffer containing 300 mM imidazole. The eluate was applied to a Superdex 200 (GE Healthcare) equilibrated with 25 mM HEPES, pH 7.5, 200 mM NaCl, and 1 mM DTT. The protein was judged to be greater than 95% pure by SDS-PAGE, concentrated to 3.5 mg/mL and stored at −80 °C. Yield was 450 mg/L of expressed media.
Lyso–DCN1 protein was thawed and concentrated to 9.9 mg/mL in 25 mM HEPES, pH 7.5, 200 mM NaCl, and 1 mM DTT. Each compound was incubated with protein in a 1:1.2 protein to compound molar ratio overnight at 4 °C, then spun and setup in sitting drop vapor diffusion experiments. Crystallization drops contained 2 µL of protein–inhibitor solution and 1 µL of well solution. Crystals grew at 20 °C with well solution containing 28–33% PEG 3350 and 200 mM ammonium formate. Crystals were cryoprotected in 25 mM HEPES, pH 7.5, 200 mM NaCl, 30% PEG 3350, and 1 mM DTT.
Diffraction data were collected at a wavelength of 0.9786 Å on the APS LS-CAT 21-ID-G beamline at Argonne National Laboratory. Data were processed using HKL2000[44] and solved via molecular replacement using molrep[45] with two independent search models (lysozyme and DCN1) from PDB ID 5V83. The structures were iteratively fit and refined using Coot[46] and Buster[47]. […]
Target sequence in this assay (Q96GG9 62-251): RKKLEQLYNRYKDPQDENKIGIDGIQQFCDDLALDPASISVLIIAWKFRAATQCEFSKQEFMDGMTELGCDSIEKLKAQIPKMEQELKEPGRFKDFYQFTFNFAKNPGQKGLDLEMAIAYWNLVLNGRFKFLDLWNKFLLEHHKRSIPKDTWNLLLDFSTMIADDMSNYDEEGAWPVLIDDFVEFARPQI

[3] = 10 min incubation, 1.2-fold excess inhibitor

| covalent complex formation / reaction kinetics with DCN1 protein (in words) (DCN1 [1]) | Percentage of the formation of covalent complex with DCN1 protein (DCN1 [1]; [3]) [%] | Percentage of the formation of covalent complex with DCN1 protein (DCN1 [1]; 180 min (3 h) incubation) [%] | Percentage of the formation of covalent complex with DCN1 protein (DCN1 [1]; 720 min (12 h) incubation) [%] | solubility (Solubility) | Percentage of the formation of covalent complex with DCN1 protein (DCN1 [1]; 60 min (1 h) incubation) [%] | covalent bond to Cys115 of DCN1 in the cocrystal structure (DCN1 [2]) | Structure (SMILES) |
| --- | --- | --- | --- | --- | --- | --- | --- |
| slow reaction kinetics | 0 | 15 | 70 | poor solubility | – | – | CCC(=O)N[C@@H](Cc1nc2ccc(C(C)C)cc2s1)C(=O)N[C@H](CNC(=O)CCl)C1CCCCC1 [compound 2] |
| slow reaction kinetics | 0 | – | 40 | poor solubility | – | – | C=CC(=O)NC[C@@H](NC(=O)[C@H](Cc1nc2ccc(C(C)C)cc2s1)NC(=O)CC)C1CCCCC1 [compound 3] |
| slower reaction kinetics than 3 or 5 | 0 | – | – | – | 0 | no covalent bond formed | CCC(=O)N[C@@H](Cc1nc2ccc(C(C)C)cc2s1)C(=O)N[C@H](CNC(=O)/C=C/CN1CCOCC1)C1CCCCC1 [compound 4] |
